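Test compounds were applied to cells in 96-well plates for 48 hours at 5 doses. GI50 marks 50% less growth. At the TGI there is no net growth.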
Assays:
Test in all cases: growth of human tumour cells (NCI), 48 h
A498 renal = tested on: A498 renal
OVCAR-5 ovarian = tested on: OVCAR-5 ovarian
SNB-19 CNS = tested on: SNB-19 CNS
SF-539 CNS = tested on: SF-539 CNS
SW-620 colon = tested on: SW-620 colon
UACC-257 melanoma = tested on: UACC-257 melanoma
EKVX NSCLC = tested on: EKVX NSCLC
NCI/ADR-RES ovarian = tested on: NCI/ADR-RES ovarian
SF-295 CNS = tested on: SF-295 CNS
786-0 renal = tested on: 786-0 renal

| Compound | GI50 (A498 renal) [µM] | TGI (A498 renal) [µM] | GI50 (OVCAR-5 ovarian) [µM] | TGI (OVCAR-5 ovarian) [µM] | GI50 (SNB-19 CNS) [µM] | TGI (SNB-19 CNS) [µM] | GI50 (SF-539 CNS) [µM] | TGI (SF-539 CNS) [µM] | GI50 (SW-620 colon) [µM] | TGI (SW-620 colon) [µM] | GI50 (UACC-257 melanoma) [µM] | TGI (UACC-257 melanoma) [µM] | GI50 (EKVX NSCLC) [µM] | TGI (EKVX NSCLC) [µM] | GI50 (NCI/ADR-RES ovarian) [µM] | TGI (NCI/ADR-RES ovarian) [µM] | GI50 (SF-295 CNS) [µM] | TGI (SF-295 CNS) [µM] | GI50 (786-0 renal) [µM] | TGI (786-0 renal) [µM] |
| --- | --- | --- | --- | --- | --- | --- | --- | --- | --- | --- | --- | --- | --- | --- | --- | --- | --- | --- | --- | --- |
| CCN1C(=O)N(CC)C2C1NC(=S)N2/N=C/C=C/c1ccccc1 (centres undefined) | 0.0249 | 0.146 | 0.465 | > 100 | 0.127 | > 100 | 0.0633 | 0.871 | 0.0726 | > 100 | > 100 | > 100 | 0.634 | > 100 | 0.0935 | > 100 | 0.0666 | > 100 | 0.158 | > 100 |
| O=C1Nc2ccc(-c3cccnc3)cc2/C1=C/c1cc(Br)c(O)c(Br)c1 | 3.86 | 11.5 | 15.6 | > 25 | 9.11 | > 25 | 5.15 | > 22.4 | 8.23 | > 25 | 4.07 | 9.36 | 10.2 | > 25 | > 20 | > 25 | 5.25 | 13.7 | 7.18 | > 25 |
| C#COc1cccc(Nc2ncnc3cc(NC(=O)[C@@H](C)Cl)ccc23)c1 | 7.16 | 49.9 | 18 | > 62.5 | 19.2 | > 62.5 | 8.61 | 46 | 3.95 | > 62.5 | > 62.5 | > 62.5 | 28.7 | > 62.5 | 5.21 | 34.6 | 8.22 | 61.2 | 19.3 | > 62.5 |
| Nc1c(C(=O)Nc2ccccc2)sc2nc3c(cc12)C(=O)CCC3 | 0.282 | – | 1.28 | > 100 | 0.73 | > 100 | 0.384 | > 26.1 | 0.333 | > 100 | 0.57 | > 100 | 0.627 | > 100 | 0.399 | 10.6 | 0.435 | > 100 | 1.27 | > 100 |
| O=C(Nc1ccc(-n2cc(-c3ccncc3)c(-c3ccc(Cl)c(O)c3)n2)cc1)c1cc(C(F)(F)F)cc(C(F)(F)F)c1 | 14.8 | 35 | 21.4 | > 100 | 8.79 | > 100 | 2.95 | 13.8 | 5.4 | 35.6 | 8.95 | > 100 | 22 | > 100 | 6.91 | > 100 | 3.31 | 18.1 | 3.78 | 13.6 |
| [O-][n+]1c2cccc(O)c2[n+]([O-])c2cccc(O)c21 | – | > 100 | – | > 100 | – | > 100 | – | > 100 | – | > 100 | – | > 100 | – | 76.2 | – | > 100 | – | > 100 | – | > 100 |
| CN(C)CCCOc1ccc(NC2=C(Cl)C(=O)C(Nc3ccc(OCCCN(C)C)cc3)=C(Cl)C2=O)cc1 | 1.66 | 3.32 | 1.69 | 3.18 | 1.73 | 3.39 | 1.79 | 3.19 | 0.297 | 0.809 | 0.793 | 2.29 | 0.582 | 1.26 | 1.68 | 4.72 | 1.67 | 3.19 | 1.59 | 2.98 |
| CC(=O)Nc1cccc(C#Cc2cncnc2Nc2ccc(OCc3cccc(F)c3)c(Cl)c2)c1 | 1.1 | > 16.6 | 12.7 | > 25 | 24.6 | > 25 | 14.9 | > 25 | 17.9 | > 25 | 13.7 | > 25 | 2.01 | > 21.5 | 6.86 | > 25 | 6.47 | > 25 | 7.66 | > 25 |
| S=C(Sc1ccc(Cl)cc1)Sc1ccc(Cl)cc1 | 2.91 | 7.9 | 2.32 | 4.81 | 3.8 | 16 | 1.74 | 3.84 | 1.62 | 3.01 | 5.04 | 16.6 | 3.03 | 13.6 | 2.67 | 6.58 | 1.01 | 6.58 | 1.94 | 3.6 |
| C[C@]12CCc3nc(Nc4ccc(O)cc4)sc3C1=CC[C@@H]1[C@@H]2CC[C@]2(C)/C(=N/NC(N)=S)CC[C@@H]12 | 2.09 | 4.9 | 1.98 | 4.8 | 1.38 | 2.94 | 1.49 | 3.09 | 1.29 | 3.26 | 2.04 | 5.61 | 1.57 | 3.61 | 2.38 | 7.51 | 1.57 | 3.48 | 1.64 | 3.09 |
| N#CN1CC[C@H](C(=O)Nc2ncc(-c3ccccc3)s2)C1 | 1.62 | 3.45 | 1.39 | > 100 | 1.11 | 11.3 | 0.294 | 1.38 | 0.313 | 14.4 | 1.52 | 3.73 | 1.43 | 3.28 | 0.724 | 8.01 | 1.22 | 6.44 | 0.404 | 2.48 |
| CC(C)(C)O/N=C/c1cc(NC(=S)c2ccccc2)ccc1Cl | – | 27.6 | – | 69.7 | – | 63.8 | – | 71.4 | – | 45.3 | – | 31 | – | 40.7 | – | 33.5 | – | 51.3 | – | 32.5 |
| Oc1cn(-c2ccc(Cl)cc2)nc1-c1n[nH]c(=S)n1-c1ccc(F)cc1 | 34.6 | 76.5 | 32 | > 100 | 61.9 | > 100 | 15.1 | 34.9 | 22.8 | 78.3 | 24.2 | 77.4 | 27.5 | 91.1 | 15.4 | 54.9 | 14.8 | 66.9 | 28.1 | > 100 |
| O=c1[nH]c(=S)[nH]c(O)c1/C=C1\C=Nc2ccccc21 | 12.3 | 28.4 | 25.7 | > 100 | 4.53 | 59.3 | 3.11 | 9.87 | 1.83 | 3.78 | 14.2 | 53.6 | 7.14 | 32.8 | 6.64 | 58 | 1.81 | 6.84 | 6.47 | 22.2 |
| Cn1cc(-c2ccc3ncc(-c4ccc(CC(=O)Nc5cc(C(C)(C)C)nn5C)cc4)cc3c2)cn1 | 0.422 | 1.66 | 7.83 | > 20 | 3.35 | > 20 | 2.22 | > 20 | 1.67 | > 20 | 1.45 | > 20 | 1.88 | > 20 | 0.749 | 6.77 | 1.58 | > 20 | 1.28 | > 20 |
| COCc1cc2c(s1)C(=O)C1=C(C2=O)C2(C=C(Br)C(=O)C(Br)=C2)CCN1 | – | 29.6 | – | 29.5 | – | 35.5 | – | 15.5 | – | 10.6 | – | 3.32 | – | 26.3 | – | 9.41 | – | 19.3 | – | 16.3 |
